The supplement of paper PMC10733146

Tests used:
Experiment in all cases: viability relative to DMSO control (fraction); higher = less drug effect (more viable cells)
Conditions in all cases: 48 h
[1] = test system: primary AML patient cells (S012)
Procedure, shortened: (§1)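 In 384-well plates with compounds pre-plated at five concentrations (one well per concentration), primary mononuclear tumour cells were plated at 4 × 10^4 cells per well. The cells came from blood or bone marrow by Ficoll isolation or from processed lymph node, and were used fresh or cryopreserved. Culture ran for 48 h at 37 °C and 5% CO2 in RPMI-1640 containing penicillin/streptomycin, L-glutamine and human serum. Viability was read as CellTiter-Glo luminescence, normalised to the median of 16 inner DMSO wells.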

[2] = test system: primary AML patient cells (S037)
Procedure, shortened: as §1

[3] = test system: primary AML patient cells (S019)
Procedure, shortened: as §1

[4] = test system: primary AML patient cells (S081)
Procedure, shortened: as §1

[5] = test system: primary AML patient cells (S027)
Procedure, shortened: as §1

[6] = test system: primary AML patient cells (S007)
Procedure, shortened: as §1

[7] = test system: primary AML patient cells (S089)
Procedure, shortened: as §1

[8] = test system: primary AML patient cells (S011)
Procedure, shortened: as §1

[9] = test system: primary AML patient cells (S017)
Procedure, shortened: as §1

[10] = test system: primary AML patient cells (S021)
Procedure, shortened: as §1

[11] = test system: primary AML patient cells (S002)
Procedure, shortened: as §1

[12] = test system: primary AML patient cells (S085)
Procedure, shortened: as §1

[13] = test system: primary CLL patient cells (S043)
Procedure, shortened: as §1

[14] = test system: primary AML patient cells (S025)
Procedure, shortened: as §1

[15] = test system: primary AML patient cells (S091)
Procedure, shortened: as §1

[16] = test system: primary AML patient cells (S006)
Procedure, shortened: as §1

[17] = test system: primary DLBCL patient cells (S076)
Procedure, shortened: as §1

[18] = test system: primary DLBCL patient cells (S049)
Procedure, shortened: as §1

[19] = test system: primary T-NHL patient cells (S058)
Procedure, shortened: as §1

## CCN1CCN(Cc2ccc(Nc3ncc(F)c(-c4cc(F)c5nc(C)n(C(C)C)c5c4)n3)nc2)CC1
[1]; 0.024 µM
  viability: 1.11
[1]; 0.12 µM
  viability: 1.04
[1]; 0.6 µM
  viability: 1.07
[1]; 3 µM
  viability: 0.986
[1]; 15 µM
  viability: 0.902
[2]; 0.024 µM
  viability: 0.952
[2]; 0.12 µM
  viability: 0.926
[2]; 0.6 µM
  viability: 1.03
[2]; 3 µM
  viability: 0.71
[2]; 15 µM
  viability: 0.255
[3]; 0.024 µM
  viability: 1.18
[3]; 0.12 µM
  viability: 0.939
[3]; 0.6 µM
  viability: 1.13
[3]; 3 µM
  viability: 0.232
[3]; 15 µM
  viability: 0.0632
[4]; 0.024 µM
  viability: 0.929
[4]; 0.12 µM
  viability: 0.868
[4]; 0.6 µM
  viability: 0.833
[4]; 3 µM
  viability: 0.537
[4]; 15 µM
  viability: 0.174
[5]; 0.024 µM
  viability: 1.05
[5]; 0.12 µM
  viability: 1.05
[5]; 0.6 µM
  viability: 0.953
[5]; 3 µM
  viability: 0.313
[5]; 15 µM
  viability: 0.018
[6]; 0.024 µM
  viability: 0.759
[6]; 0.12 µM
  viability: 0.725
[6]; 0.6 µM
  viability: 0.782
[6]; 3 µM
  viability: 0.668
[6]; 15 µM
  viability: 0.0289
[7]; 0.024 µM
  viability: 0.589
[7]; 0.12 µM
  viability: 0.962
[7]; 0.6 µM
  viability: 0.576
[7]; 3 µM
  viability: 0.0472
[7]; 15 µM
  viability: 0.0221
[8]; 0.024 µM
  viability: 1.74
[8]; 0.12 µM
  viability: 1.08
[8]; 0.6 µM
  viability: 1.09
[8]; 3 µM
  viability: 0.0537
[8]; 15 µM
  viability: 0.01
[9]; 0.024 µM
  viability: 1.01
[9]; 0.12 µM
  viability: 1.14
[9]; 0.6 µM
  viability: 1.1
[9]; 3 µM
  viability: 0.73
[9]; 15 µM
  viability: 0.179
[10]; 0.024 µM
  viability: 1.01
[10]; 0.12 µM
  viability: 0.962
[10]; 0.6 µM
  viability: 1.22
[10]; 3 µM
  viability: 0.377
[10]; 15 µM
  viability: 0.0751
[11]; 0.024 µM
  viability: 0.84
[11]; 0.12 µM
  viability: 0.894
[11]; 0.6 µM
  viability: 0.884
[11]; 3 µM
  viability: 0.363
[11]; 15 µM
  viability: 0.139
[12]; 0.024 µM
  viability: 0.895
[12]; 0.12 µM
  viability: 1.01
[12]; 0.6 µM
  viability: 1.22
[12]; 3 µM
  viability: 0.265
[12]; 15 µM
  viability: 0.0115
[13]; 0.024 µM
  viability: 0.893
[13]; 0.12 µM
  viability: 1.05
[13]; 0.6 µM
  viability: 0.936
[13]; 3 µM
  viability: 0.58
[13]; 15 µM
  viability: 0.24
[14]; 0.024 µM
  viability: 1.11
[14]; 0.12 µM
  viability: 1.02
[14]; 0.6 µM
  viability: 1.1
[14]; 3 µM
  viability: 0.372
[14]; 15 µM
  viability: 0.0187
[15]; 0.024 µM
  viability: 0.77
[15]; 0.12 µM
  viability: 0.939
[15]; 0.6 µM
  viability: 0.849
[15]; 3 µM
  viability: 0.569
[15]; 15 µM
  viability: 0.333

## CC#CC(=O)N1CCC[C@H]1c1nc(-c2ccc(C(=O)Nc3ccccn3)cc2)c2c(N)nccn12 [Acalabrutinib (ACP-196)]
[1]; 0.008 µM
  viability: 1.08
[1]; 0.04 µM
  viability: 1.16
[1]; 0.2 µM
  viability: 1.14
[1]; 1 µM
  viability: 1.16
[1]; 5 µM
  viability: 1.21
[2]; 0.008 µM
  viability: 1.07
[2]; 0.04 µM
  viability: 1.62
[2]; 0.2 µM
  viability: 1.07
[2]; 1 µM
  viability: 1.22
[2]; 5 µM
  viability: 1.05
[3]; 0.008 µM
  viability: 1.09
[3]; 0.04 µM
  viability: 1.2
[3]; 0.2 µM
  viability: 1.08
[3]; 1 µM
  viability: 1.12
[3]; 5 µM
  viability: 1.06
[16]; 0.008 µM
  viability: 1.08
[16]; 0.04 µM
  viability: 1.1
[16]; 0.2 µM
  viability: 1.09
[16]; 1 µM
  viability: 1.08
[16]; 5 µM
  viability: 1.04
[4]; 0.008 µM
  viability: 1.01
[4]; 0.04 µM
  viability: 1.05
[4]; 0.2 µM
  viability: 0.985
[4]; 1 µM
  viability: 1.02
[4]; 5 µM
  viability: 1.02
[17]; 0.008 µM
  viability: 1.08
[17]; 0.04 µM
  viability: 1.14
[17]; 0.2 µM
  viability: 1.11
[17]; 1 µM
  viability: 1.12
[17]; 5 µM
  viability: 1.06
[6]; 0.008 µM
  viability: 0.895
[6]; 0.04 µM
  viability: 0.945
[6]; 0.2 µM
  viability: 0.911
[6]; 1 µM
  viability: 1.07
[6]; 5 µM
  viability: 1.04
[7]; 0.008 µM
  viability: 0.975
[7]; 0.04 µM
  viability: 0.996
[7]; 0.2 µM
  viability: 0.91
[7]; 1 µM
  viability: 0.679
[7]; 5 µM
  viability: 0.629
[8]; 0.008 µM
  viability: 1.03
[8]; 0.04 µM
  viability: 1.02
[8]; 0.2 µM
  viability: 1.01
[8]; 1 µM
  viability: 0.864
[8]; 5 µM
  viability: 1.01
[9]; 0.008 µM
  viability: 1.32
[9]; 0.04 µM
  viability: 1.1
[9]; 0.2 µM
  viability: 1.15
[9]; 1 µM
  viability: 1.36
[9]; 5 µM
  viability: 0.997
[10]; 0.008 µM
  viability: 1.13
[10]; 0.04 µM
  viability: 1.05
[10]; 0.2 µM
  viability: 1.13
[10]; 1 µM
  viability: 1.1
[10]; 5 µM
  viability: 1.03
[11]; 0.008 µM
  viability: 0.98
[11]; 0.04 µM
  viability: 1.15
[11]; 0.2 µM
  viability: 1.03
[11]; 1 µM
  viability: 0.952
[11]; 5 µM
  viability: 1.04
[18]; 0.008 µM
  viability: 0.892
[18]; 0.04 µM
  viability: 0.758
[18]; 0.2 µM
  viability: 0.693
[18]; 1 µM
  viability: 0.74
[18]; 5 µM
  viability: 0.704
[12]; 0.008 µM
  viability: 1.05
[12]; 0.04 µM
  viability: 1.14
[12]; 0.2 µM
  viability: 1.01
[12]; 1 µM
  viability: 0.989
[12]; 5 µM
  viability: 1.02
[13]; 0.008 µM
  viability: 0.794
[13]; 0.04 µM
  viability: 0.768
[13]; 0.2 µM
  viability: 0.73
[13]; 1 µM
  viability: 0.701
[13]; 5 µM
  viability: 0.72
[19]; 0.008 µM
  viability: 1.16
[19]; 0.04 µM
  viability: 1.21
[19]; 0.2 µM
  viability: 1.14
[19]; 1 µM
  viability: 1.25
[19]; 5 µM
  viability: 1.06
[14]; 0.008 µM
  viability: 1.06
[14]; 0.04 µM
  viability: 1.26
[14]; 0.2 µM
  viability: 1.04
[14]; 1 µM
  viability: 1.05
[14]; 5 µM
  viability: 1.05
[15]; 0.008 µM
  viability: 0.945
[15]; 0.04 µM
  viability: 1.06
[15]; 0.2 µM
  viability: 0.979
[15]; 1 µM
  viability: 1.01
[15]; 5 µM
  viability: 1.07
